Measured values reported in patent publication US20070104785A1, “TABLETS OF LINEZOLID FORM III AND PROCESSES FOR THEIR PREPARATION” (priority 2005, published 2007).

Assay: Gelling tendency when the solid dosage form contacts water
Type: physicochemical
Conditions: in words
Source text: Linezolid Form I is known from the publication, Brickner S J et al. (J. Med. Chem. 39 (3), 673-679, 1996). U.S. Pat. No. 6,559,305 discloses linezolid Form II. Tablets containing linezolid Form II are known from U.S. Pat. No. 6,514,529. The PCT application WO 05035530 discloses crystalline Form III of linezolid. […]. The gel formation leads to an erratic dissolution of the linezolid from the dosage form. A dosage form should deliver a drug in a reproducible way so that a maximum therapeutic effect can be achieved. An unpredictable release from the dosage form can compromise efficacy. The gelling tendency of linezolid Form III would discourage its formulation into solid dosage forms.
Without wishing to be bound by any theory, the following explanation is given for mechanisms involved with the solid dosage form of the present invention that provide a reproducible dissolution profile. […]. When linezolid Form III crystal comes in contact with water, the surface of the crystal dissolves and the dissolved linezolid Form III instead of spreading in water tends to stick to the crystal surface to form a gel layer around the crystal. The gel formation around the crystal acts as a barrier impeding further contact with water, which in turn retards the solubilization of linezolid Form III. […]

## CC(=O)NC[C@H]1CN(c2ccc(N3CCOCC3)c(F)c2)C(=O)O1 [Linezolid Form III, (S)—N—[[3-[3-Fluoro-4-(4-morpholinyl)phenyl]-2-oxo-5-oxazolidinyl]methyl]-acetamide]
  gelling tendency in contact with water: exhibits a gelling tendency
